For this experiment, the target named is wt-OMVs. As to the kind of experiment: SPR steady-state affinity of reversible (saw-tooth) binding, wt-OMVs. On the set-up: species or system E. coli. The following applies: n=4, (SD), read-out: Apparent KD. As for the experimental part:
An apparent-KD was measured for the reversible saw-tooth binding profile where polymyxin B was titrated over an OMV surface pre-saturated with the stable binding component (Supplementary Information Fig. S11B). […] No pre-saturation was necessary when using resistant-OMVs or PMBN as these lack the stable component (Fig. 2B, D–F).
Binding and kinetic analysis of SPR-OMV assays
To determine the apparent- KD of the reversible binding event of polymyxin B, single-cycle kinetics were performed as described in Materials and Methods. After OMVs were loaded, 5 µM polymyxin B was injected for 360 sec ([…] flow rate) followed by 120 sec dissociations to saturate the stable-binding population prior to the sample injections. The base-to-peak value of each trace was determined from double-referenced traces (reference 1: - OMVs/ + compound channel; reference 2: + OMVs/ - compound) exported from the Biacore S200 evaluation software into PRISM 9 software. The change in RU with each pulse was plotted over the concentration and the KD determined by fitting a non-linear regression, one-site total function with background parameter set to 0 (GraphPad Prism version 9.3.1 for Mac, GraphPad Software, San Diego, California USA, www.graphpad.com). […]

These results are taken from paper PMC11148078, “Potent activity of polymyxin B is associated with long-lived super-stoichiometric accumulation mediated by weak-affinity binding to lipid A” (Nature Communications, 2024).

Molecules are shown by their SMILES. Read-outs that look alike come from different tables or passages of the source. Bridge positions count the residues as written; N and C are the ends. Square brackets hold non-standard residues; d marks the D form. Peptide text beside a SMILES is read from it. * marks the point of attachment. X1 = CC[C@H](C)CCCCC(=O)*; Dab = NCC[C@H](N)C(=O)O

Take `CC(C)C[C@@H]1NC(=O)[C@@H](Cc2ccccc2)NC(=O)[C@H](CCN)NC(=O)[C@@H](NC(=O)[C@H](CCN)NC(=O)[C@@H](N)[C@@H](C)O)CCNC(=O)[C@H]([C@@H](C)O)NC(=O)[C@H](CCN)NC(=O)[C@H](CCN)NC1=O` [PMBN] (H-T[Dab][Dab][Dab][dF]L[Dab][Dab]T; lactam 3-C): the Kd (no pre-saturation) is 288 nM.
`CC[C@H](C)CCCCC(=O)N[C@@H](CCN)C(=O)N[C@H](C(=O)N[C@@H](CCN)C(=O)N[C@H]1CCNC(=O)[C@H]([C@@H](C)O)NC(=O)[C@H](CCN)NC(=O)[C@H](CCN)NC(=O)[C@H](CC(C)C)NC(=O)[C@@H](Cc2ccccc2)NC(=O)[C@H](CCN)NC1=O)[C@@H](C)O` [Polymyxin B] (X1-[Dab]T[Dab][Dab][Dab][dF]L[Dab][Dab]T; lactam 4-C (inferred); N-terminus assumed): the Kd (isolated reversible binding, OMVs pre-saturated with 5 µM polymyxin B) came to 517 nM.
